Laboratory results from patent US20150031686A1, “PHENYL-OXAZOLYL DERIVATIVES, PREPARATION METHOD THEREOF, AND RELATED APPLICATION OF THE PHENYL-OXAZOLYL DERIVATIVES AS AN IMPDH INHIBITOR” (INSTITUTE OF MEDICINAL BIOTECHNOLOGY, CHINESE ACADEMY OF …, priority 2012, published 2015).
Values after ≈ are worked out from the molar mass of the structure shown.

What was measured:
[1] = tested on: IMPDH; assay: IMPDH inhibition activity (A340, IMP substrate, NAD); type: biochemical; conditions: compound at 10 μg/mL
Experimental: Measurement of IMPDH Inhibitor Activity
In 96-well plates, use IMP as the substrate and NAD, NADH as chromogenic agents to determine the activity of the compounds described in this invention as IMPDH inhibitor. Add 2 μl of each of the tested sample solution, 20 μl enzyme extract and 30 μl IMP into a sample well in the 96-well plates; 2 μl DMSO and 30 μl IMP solution into a control well; 2 μl DMSO and 20 μl IMPDH buffer instead of the enzyme extract and 30 μl IMP solution into a blank well. Keep plates at constant 37° C. for 15 min, measure absorbance values A340 (OD1) of the solutions in various wells; subsequently, add into each well with 50 μl NAD, keep at constant 37° C. for 50 min, then measure A340 (OD2) values. Calculate IMPDH inhibition rates of samples as follows: Inhibition (%)=[(OD2−OD1)control−(OD2−OD1)Sample]/[(OD2−OD1)control−(OD2−OD1)Blank]×100%.

[2] = tested on: Coxsackie virus type B6 (COX-B6); assay: Anti-Coxsackie virus type B6 (COX-B6) activity, CPE in Vero cells; type: cell-based; conditions: Reed-Muench
Experimental: With Vero (African green monkey kidney) cells as viral hosts, inhibitory effects of the compounds of present invention on the grades of pathological lesions by coxsackievirus B3 (COX-B3), B6 (COX-B6) viruses in Vero cells were determined. The measured results of viral inhibitory activity of the compounds are shown in Table 3 and Table 4; wherein RBV is the control drug ribavirin. The inhibitory activities of the measured compounds against coxsackievirus B3, B6 were stronger than the control.
Screening of Anti-B3, B6 Type Coxsackie Viruses (COX-B3, COX-B6) Activity of the Samples
Prepare stock solutions of COX-B3 (or COX-B6) virus strains as well as tested compounds in DMSO before use. Before tests, dilute the stock solution with culture solution into a certain concentration and then dilute 3 times to make a total of eight dilutions. Use ribavirin (RBV) as positive control. Test procedures are as follows: seed Vero cells into 96-well culture plates, infect with 10^−5 Coxsackie virus of B3 (or B6) type, 24 hours later; adsorb subsequently for 2 hours, then discard the virus solution, add in the sample compounds and the positive control according to the abovementioned dilutions, set cell control wells and virus control wells simultaneously. When the cytopathic effect (CPE) of cells in the virus control wells reach 4+, observe CPE of the cells in each group. Use Reed-Muench method to calculate 50% inhibitory concentration (IC50) of the sample compounds against coxsackie virus B3 (or B6) type.

[3] = tested on: human hepatoma cell HepG2; assay: In vitro human hepatoma cell HepG2 inhibitory activity (MTT); type: cell-based; conditions: Homo sapiens, HepG2, 48 h
From the text: (§1) According to the progress in the studies on anticancer drugs using IMPDH as a target, the present invention measured inhibitory activities of the compounds of present invention against human hepatoma cell HepG2 and human lung adenocarcinoma cell A549, respectively, the measured results are shown in Table 5:
In Vitro Human Hepatoma Cell HepG2 Inhibitory Activity Measurement
Collect well growing tumor cells, prepare 6×10^4/ml cell suspension in RPMI-1640 or DMEM culture medium containing 10% FBS, seed in 96-well plates, 100 μl suspension each well, incubate at 37° C. under 5% CO2 atmosphere for 24 h, add the test solution (final concentration of drug: 0.625, 1.25, 2.5, 5.0, 10 μg/ml), for each concentration set three parallel holes, set positive control (cisplatin 10, 1, 0.1 μg/ml) and a blank control simultaneously. After culture for 48 h discard the supernatants, add into each well 10 μl MTT solution (5 mg/ml, prepared with RPMI-1640 medium), continue culturing for 4 It, add into each hole 100 μl acidified isopropanol cell lysate, culture overnight, measure absorbance (A) values with Bio-Tek MQX200 type microplate reader with the detection wavelength at 540 nm, and reference wavelength 450 nm. Calculate the inhibition rate as follows: inhibition rate=(Ablank−Asample)/Ablank control×100%. Use Graphpad Prism 5 statistical software to calculate IC50.

[4] = tested on: Coxsackie virus type B3 (COX-B3); assay: Anti-Coxsackie virus type B3 (COX-B3) activity, CPE in Vero cells; type: cell-based; conditions: Reed-Muench
Summary of the method: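 Vero cells infected with 10^−5 COX-B3 or COX-B6 virus, adsorbed 2 h; virus removed, then compounds added at eight 3-fold dilutions, ribavirin as positive control. CPE scored when virus controls reached 4+; IC50 by Reed-Muench.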

[5] = tested on: human lung adenocarcinoma cell A549; assay: In vitro human lung adenocarcinoma cell A549 inhibitory activity (MTT); type: cell-based; conditions: Homo sapiens, A549, 48 h
From the text: as §1
In Vitro Human Lung Adenocarcinoma Cell A549 Inhibitory Activity Measurement
Cell lines: human lung adenocarcinoma cell A549. Collect well growing tumor cells, prepare cell suspension with Ham's F12 culture solution containing 10% fetal calf serum medium, seed the suspension in 96-well plates, each well 100 μl suspension at 5000 cells/well, incubate at 37° C., under 5% CO2 atmosphere, 24 h later, add 2×drug solution […], each concentration in three parallel holes, set the blank control simultaneously. After culture for 48 h, add 20 μl (5 mg/ml) MTT to each well, culture 4 h, discard the supernatants. Measure absorbance (A) values using Bio-Rad 680 microplate reader at a detection wavelength of 570 nm, the survival rate (%) is calculated as follows: AsampleAblank control×100%. Use statistical software Graphpad Prism5 to calculate IC50. After primary screening of all samples, adjust the concentration gradient of the samples with IC50<100 μg/ml to do additional screenings, which are carried out with two parallel determinations.

[6] = tested on: hepatitis B virus strain A64 (lamivudine resistance)
[7] = tested on: hepatitis B virus; assay: in vitro; conditions: human
[8] = tested on: hepatitis B virus strain A64 (lamivudine resistance); assay: in vitro; conditions: human
[9] = tested on: hepatitis B virus; conditions: cell line 2215, hepatitis B virus
[10] = tested on: hepatitis B virus strain A64 (lamivudine resistance); assay: microbe, parasite or virus in culture; conditions: read-out: IC50 (50% inhibition concentration of the virus)
[11] = tested on: hepatitis B virus; assay: microbe, parasite or virus in culture; conditions: read-out: IC50 (50% inhibition concentration of the virus)
[12] = tested on: mouse spleen cell; assay: Mouse spleen cell proliferation inhibiting activity; type: cell-based; conditions: mouse spleen cells
From the text: The present invention also provides the results of experimental studies on the biological activity of said compounds.

IC50 [2] [µg/mL] | IC50 [3] [µg/mL] | IC50 [4] [µg/mL] | IC50 [5] [µg/mL] | SMILES | inhibition rate (%) 10 μg/mL [1] [%] | TC50 (half toxic concentration) [6] [µg/mL] | selectivity ratio [7] | selectivity ratio [8] | TC50 (half toxic concentration) [9] [µg/mL] | IC50 [10] [µg/mL] | IC50 [11] [µg/mL] | IC50 [12] [µg/mL]
0.44 (≈ 1.54 µM) | 0.95 (≈ 3.32 µM) | 0.44 (≈ 1.54 µM) | – | COc1cc(NCc2cccs2)ccc1-c1cnco1 [Compound 1, N-(thien-2-ylmethyl)-3-methoxy-4-(oxazol-5-yl) aniline] | 65.7 | – | – | – | – | – | – | –
0.63 (≈ 2.1 µM) | 7.95 (≈ 26.5 µM) | 0.23 (≈ 0.766 µM) | 18.6 (≈ 61.9 µM) | COc1cc(NCc2ccc(C)s2)ccc1-c1cnco1 [Compound 2, N-(5-methylthien-2-ylmethyl)-3-methoxy-4-(oxazol-5-yl) aniline] | 68.7 | – | – | – | – | – | – | –
0.44 (≈ 1.2 µM) | 83.4 (≈ 228 µM) | 0.47 (≈ 1.29 µM) | 16.5 (≈ 45.2 µM) | COc1cc(NCc2ccc(Br)s2)ccc1-c1cnco1 [Compound 5, N-(5-bromothien-2-ylmethyl)-3-methoxy-4-(oxazol-5-yl) aniline] | 58.9 | – | – | – | – | – | – | –
1.33 (≈ 4.64 µM) | 42.1 (≈ 147 µM) | 0.44 (≈ 1.54 µM) | 29.7 (≈ 104 µM) | COc1cc(NCc2ccsc2)ccc1-c1cnco1 [Compound 11, N-(thien-3-ylmethyl)-3-methoxy-4-(oxazol-5-yl) aniline] | 69.6 | – | – | – | – | – | – | –
0.82 (≈ 2.44 µM) | 2.88 (≈ 8.57 µM) | 0.64 (≈ 1.9 µM) | 11.6 (≈ 34.5 µM) | COc1cc(NCc2csc3ccccc23)ccc1-c1cnco1 [Compound 20, N-(benzothien-3-ylmethyl)-3-methoxy-4-(oxazol-5-yl) aniline] | 47.7 | – | – | – | – | – | – | –
1.93 (≈ 6.79 µM) | 31.3 (≈ 110 µM) | 1.43 (≈ 5.03 µM) | 20.7 (≈ 72.8 µM) | COc1cc(NCc2ccc(C)o2)ccc1-c1cnco1 [Compound 42, N-(5-methylfuran-2-ylmethyl)-3-methoxy-4-(oxazol-5-yl) aniline] | 60.7 | – | – | – | – | – | – | –
7.41 (≈ 23.2 µM) | 22.5 (≈ 70.6 µM) | > 2.47 | 38.6 (≈ 121 µM) | COc1cc(NCc2c[nH]c3ccccc23)ccc1-c1cnco1 [Compound 53, N-(1H-indol-3-ylmethyl)-3-methoxy-4-(oxazol-5-yl) aniline] | 39.2 | – | – | – | – | – | – | –
1.88 (≈ 6.37 µM) | 42.8 (≈ 145 µM) | 2.47 (≈ 8.36 µM) | 36.7 (≈ 124 µM) | COc1cc(NCc2cccc(C)n2)ccc1-c1cnco1 [Compound 57, N-(6-methylpyridin-2-ylmethyl)-3-methoxy-4-(oxazol-5-yl) aniline] | 45.1 | – | – | – | – | – | – | –
1.06 (≈ 3.42 µM) | 36.2 (≈ 117 µM) | 0.64 (≈ 2.06 µM) | 29.4 (≈ 94.8 µM) | COc1ccc(CNc2ccc(-c3cnco3)c(OC)c2)cc1 [Compound 61, N-(4-methoxybenzyl)-3-methoxy-4-(oxazol-5-yl) aniline] | 73.7 | – | – | – | – | – | – | –
2.47 (≈ 7.34 µM) | 19.4 (≈ 57.5 µM) | 0.47 (≈ 1.4 µM) | 14.1 (≈ 42 µM) | COc1ccccc1/C=C/CNc1ccc(-c2cnco2)c(OC)c1 [Compound 63] | – | – | – | – | – | – | – | 2.22 (≈ 6.6 µM)
5.75 (≈ 18.9 µM) | – | 1.23 (≈ 4.04 µM) | – | COc1cc(/N=C/C=C/c2ccccc2)ccc1-c1cnco1 [Compound 65, N-(phenylpropen-1-ylidene)-3-methoxy-4-(oxazol-5-yl)-aniline] | 32.0 | – | – | – | – | – | – | –

SMILES | IC50 [2] [µg/mL] | IC50 [3] [µg/mL] | IC50 [4] [µg/mL] | IC50 [5] [µg/mL] | inhibition rate (%) 10 μg/mL [1] [%] | TC50 (half toxic concentration) [6] [µg/mL] | selectivity ratio [7] | selectivity ratio [8] | TC50 (half toxic concentration) [9] [µg/mL] | IC50 [10] [µg/mL] | IC50 [11] [µg/mL] | IC50 [12] [µg/mL]
COc1cc(NCc2ccc(Cl)s2)ccc1-c1cnco1 [Compound 4, N-(5-chlorothien-2-ylmethyl)-3-methoxy-4-(oxazol-5-yl) aniline] | 0.27 (≈ 0.842 µM) | 29.1 (≈ 90.7 µM) | 0.44 (≈ 1.37 µM) | 16 (≈ 50 µM) | 74.9 | > 50 | 36.8 | > 28.1 | 100 (≈ 312 µM) | 1.78 (≈ 5.55 µM) | 2.72 (≈ 8.48 µM) | –
